{
  "source": "patent EP1369120B1",
  "about": "(priority 2002, dated 2003)",
  "key": {"[1]": {"test_system": "HCV sub-genomic replicons (Ava.5)", "assay": "microbe, parasite or virus in culture", "assay_type": "cell-based, hepatitis C virus"}, "[2]": {"test_system": "Huh-7 cells containing HCV sub-genomic replicons (Ava.5)", "assay": "cells", "assay_type": "cell-based"}, "HCV": {"test_system": "HCV", "assay_type": "cell-based", "conditions": "300 nM As2O3 (data not shown)"}, "[3]": {"conditions": "huh-7 hcv replicon cells, 1440 min, 1 µM"}, "[4]": {"conditions": "huh-7 hcv replicon cells, 4320 min, 0.01 µM"}, "[5]": {"conditions": "huh-7 hcv replicon cells, 4320 min, 0.05 µM"}, "[6]": {"conditions": "huh-7 hcv replicon cells, 4320 min, 0.1 µM"}, "[7]": {"conditions": "huh-7 hcv replicon cells, 4320 min, 1 µM"}},
  "note": "Where “and” joins values, the source holds several entries; their conditions need not be identical. Equal values may be shown once. Read-outs that look alike come from different tables or passages of the source.",
  "data": [
    {"compound": "Potassium antimony tartrate [Potassium antimony tartrate (PAT)]", "values": [
      {"measurement": "inhibition of HCV replication", "setting": "[1]; 5 µM", "result": "75 % inhibition of HCV replication at 5 µM of PAT treatment"},
      {"measurement": "IC50", "setting": "[2]; read-out: IC50", "result": 35000, "unit": "nM"}
    ]},
    {"compound": "arsenic trioxide [As2O3]", "values": [
      {"measurement": "inhibition of replication of HCV RNA", "setting": "[1]", "result": "dose-dependent manner"},
      {"measurement": "negative strand of HCV RNA detected (relative copy number)", "setting": "[1]; [3]", "result": 14.1, "unit": "%"},
      {"measurement": "positive strand of HCV RNA detected (relative copy number)", "setting": "[1]; [3]", "result": 15.6, "unit": "%"},
      {"measurement": "relative HCV RNA level (negative strand)", "setting": "[1]; [4]", "result": 135.3, "unit": "%"},
      {"measurement": "relative HCV RNA level (positive strand)", "setting": "[1]; [4]", "result": 95.1, "unit": "%"},
      {"measurement": "relative HCV RNA level (negative strand)", "setting": "[1]; [5]", "result": 74.3, "unit": "%"},
      {"measurement": "relative HCV RNA level (positive strand)", "setting": "[1]; [5]", "result": 70, "unit": "%"},
      {"measurement": "relative HCV RNA level (negative strand)", "setting": "[1]; [6]", "result": 67.5, "unit": "%"},
      {"measurement": "relative HCV RNA level (positive strand)", "setting": "[1]; [6]", "result": 57.5, "unit": "%"},
      {"measurement": "negative strand HCV RNA detected (relative copy number)", "setting": "[1]; [7]", "result": 2.6, "unit": "%"},
      {"measurement": "positive strand RNA detected (relative copy number)", "setting": "[1]; [7]", "result": 6.1, "unit": "%"},
      {"measurement": "EC50", "setting": "[1]; read-out: EC50", "result": "260 nM and 190 nM and 270 nM and 160 nM and 200 nM"},
      {"measurement": "IC50", "setting": "[2]; read-out: IC50", "result": 6000, "unit": "nM"},
      {"measurement": "IC50", "setting": "[2]; read-out: ICso (concentration which causes 50% cell death)", "result": "8500 nM and 4800 nM"},
      {"measurement": "inhibition of the replication", "setting": "HCV", "result": "completely"}
    ]},
    {"compound": "O=[As]O", "note": "[Sodium arsenite]", "values": [
      {"measurement": "EC50", "setting": "[1]; Hepatitis C virus, Ava5, 24 h", "result": 250, "unit": "nM"},
      {"measurement": "IC50", "setting": "[2]; Hepatitis C virus, Ava5, 24 h", "result": 10000, "unit": "nM"}
    ]}
  ]
}
